Measured values taken from patent US6130248A, “Tricarboxylic acid-containing oxyalkyl esters and uses thereof” (Bar-ILAn University, priority 1996, dated 2000).

Key:
[1] = test system: colon carcinoma, leukemia and retinoblastoma cell lines; conditions: in vitro; cited from earlier work
[2] = test system: Au565 breast carcinoma cells; assay: Differentiation by lipid staining; type: cell-based, human; conditions: 10 μM
Source text: Lipid staining and/or immunochemical staining of casein can be used as a marker for cellular differentiation of breast cancer cells (Bacus et al., Md. Carcin. 3:350-362, 1990). Casein detection can be done by histochemical staining of breast cancer cells using a human antibody to human casein as described by Cheung et al., J. Clin. Invest. 75:1722-1728,which is incorporated by reference in its entirety.
In the case of the human breast carcinoma cell line Au565, 100%. Of the cells treated with 10 μM GOMB were positive for lipid staining whereas less than 1% of cells treated with the same concentration of AB were positive for lipid staining.

K562 cells (HbF) [3] = assay: Hb-containing K562 cells by benzidine staining; type: cell-based, human; conditions: 5 days
Procedure: (§1) Hb Measurement: HB was measured by benzidine staining of K562 cells after 5 days exposure to GOMB or AB according to the procedure of Fibach et al. (1989) [full cite]. Quantitative measurement of HbF in K562 culture or human erythroid cultures was determined by ion-exchange high pressure liquid chromatography (HPLC) as described by Fibach et al., Blood 81:1630-1635, 1993.
(§2) K562 cells: K562 is an erthroblast cell line that develops some properties of erythroid, megakaryocyte or monocyte cells, depending on the specific stimulus, when induced by different chemicals. K562 cells were grown in RPMI with 10% FCS, supplemented with 2 mM glutamine. Cells were incubated at 37° C. in a humidified, 5% CO2 incubator.

NBAS-5 (Neuroblastoma) = assay: Clonogenicity of established tumor cell lines (soft agar); type: cell-based, human
Procedure: (§3) Inhibition of tumor growth was tested using cell lines as follows: […]

[4] = test system: MCF7-40F (Breast Carcinoma); assay: as above; type: cell-based, human
Procedure: as §3

[5] = test system: LNCaP (Prostate Carcinoma); assay: as above; type: cell-based, human
Procedure: as §3

SK-N-MC (Neuroblastoma) = assay: as above; type: cell-based, human
Procedure: as §3

SMS-KAN (Neuroblastoma) = assay: as above; type: cell-based, human
Procedure: as §3

K562 (Erytholeukemia) = assay: as above; type: cell-based, human
Procedure: as §3

SK-N-SH (Neuroblastoma) = assay: as above; type: cell-based, human
Procedure: as §3

NBL-W-N (Neuroblastoma) = assay: as above; type: cell-based, human
Procedure: as §3

[6] = test system: MCF7-WT (Breast Carcinoma); assay: as above; type: cell-based, human
Procedure: as §3

LA1-5S (Neuroblastoma) = assay: as above; type: cell-based, human
Procedure: as §3

IMR-32 (Neuroblastoma) = assay: as above; type: cell-based, human
Procedure: as §3

PC3 (Prostate Carcinoma) = assay: as above; type: cell-based, human
Procedure: as §3

[7] = test system: P3HR-1 EBV-positive lymphoma cells; assay: [3H]-thymidine incorporation in EBV-positive lymphoma cells; type: cell-based, human; conditions: 72 hours
Procedure: The effect of GOMB to AB was compared on EBV virus-associated tumors. EBV-positive cells from P3HR-1, a human lymphoma cell line, were incubated in growth medium with the specified concentration of GOMB, AB, ganciclovir (GC), or combination of these, for 72 hours, seeded in 96-well plates and pulsed with 1 μCi [^3 H]-thymidine/well during the last 16 hours of exposure to the compounds. Cells were harvested with a cell harvester, using glass microfiber filters. The incorporation of [^3 H]-thymidine was determined by retention of the acid insoluble fraction on filters and is expressed as CPM.

MCF-7 cells (WAF) = assay: Apoptosis in breast cancer cells, staining with WAF antibody / Western blot; type: cell-based, human
Procedure: Induction of apoptosis by COMB and AB in MCF-7 cells was evaluated by staining cells with the WAF antibody and by Western blot analysis as described by Bacus et al., 1996, Oncogene 12:2535-2547.

HT-29 cells = assay: SRB cell proliferation assay; type: cell-based; conditions: Homo sapiens; HT-29, SRB
Procedure: (§4) The inhibition of cell proliferation was measured in the indicated cancer cell lines using the sulforhoamine B (SRB) assay as described by Monks et al., J. Natl. Can. Inst. […] The SRB assay is used to screen for anti-cancer drugs.

CFPAC cells = assay: SRB cell proliferation assay; type: cell-based
Procedure: as §4

HL-60 cells [8] = assay: SRB cell proliferation assay; type: cell-based; conditions: Homo sapiens; HL-60, SRB
Procedure: as §4

MCF7 cells = assay: SRB cell proliferation assay; type: cell-based; conditions: Homo sapiens
Procedure: as §4

[9] = test system: erythroid cells from peripheral blood (HbF); assay: HbF in cultured erythroid cells; type: cell-based; conditions: Homo sapiens; 0.2 mM, relative to untreated control cultures; read-out: increase of HbF in cultured erythroid cells
Procedure: as §1
Erythroid cells: Erythroid cells were isolated from peripheral blood of healthy individuals by the method of Fibach (1993).

[10] = test system: 53 primary tumor cell lines; assay: Inhibition of clonogenicity of primary tumor cells; type: cell-based, human
Source text: The tested tumor cells were from 11 non-small cell lung carcinomas, 10 breast carcinomas, 10 gastric carcinomas, 10 ovarian carcinomas, and 10 CNS tumors.

[11] = test system: established tumor cell lines; assay: Clonogenicity of established tumor cell lines, all lines together; type: cell-based, human; conditions: all cell lines
Procedure: as §3

K-562 cells = assay: Induction of apoptosis (propidium iodide, flow cytometry); type: cell-based, human; conditions: 3 days
Procedure: (§5) Apoptosis was measured as described by Telford et al., 1991, Cell Physiol. 24:447-459, in HL-60 cells and in the human erthroblastic cell line, K-562. Cells were treated with COMB for 3 days, fixed, stained with propidium iodine and analyzed by flow cytometrly for cell cycle distribution. […] This region consisted of cells with fragmented DNA.

HL-60 cells [12] = assay: as above; type: cell-based, human; conditions: 3 days
Procedure: as §5

[13] = test system: cancer cell lines (CFPAC, HL-60, HT-29, MCF7); assay: SRB cell proliferation assay, all cell lines together; type: cell-based
Procedure: as §4

K562 cells (HbF) [14] = assay: HbF synthesis in K562 cells (ion-exchange HPLC); type: cell-based, human
Procedure: as §2

[15] = Homo sapiens, NBAS-5 clonogenicity
[16] = Homo sapiens, MCF7-40F clonogenicity
[17] = Homo sapiens, LNCaP clonogenicity
[18] = Homo sapiens, SK-N-MC clonogenicity
[19] = Homo sapiens, SMS-KAN clonogenicity
[20] = Homo sapiens, K562 clonogenicity
[21] = Homo sapiens, SK-N-SH clonogenicity
[22] = Homo sapiens, NBL-W-N clonogenicity
[23] = Homo sapiens, MCF7-WT clonogenicity
[24] = Homo sapiens, LA1-5S clonogenicity
[25] = Homo sapiens, IMR-32 clonogenicity
[26] = Homo sapiens, PC3 clonogenicity

In the case of `CCCC(=O)[O-].[Na+]` [SB, sodium butyrate], the apoptosis [1] is listed as “produce apoptosis”.
For `CCCC(=O)OCOC(=O)CCCC(=O)O` [GOMB, mono-(butyroyloxymethyl)glutarate], the “cells positive for lipid staining” value [2] was 100%, the “Percentage K562 Cells Containing HbF” value (K562 cells (HbF) [3]; 0.01 mM) was 6.3 ± 1.15% and the “Percentage K562 Cells Containing HbF” value (K562 cells (HbF) [3]; 0.05 mM) was 12.3 ± 5.3%. The “Percentage K562 Cells Containing HbF” value (K562 cells (HbF) [3]; 0.10 mM) was 29%, the IC50 (NBAS-5 (Neuroblastoma); [15]) was 16 µM and the IC90 (NBAS-5 (Neuroblastoma); [15]) was 38 µM. For the same molecule, the “AB/GOMB IC50 Ratio” value (NBAS-5 (Neuroblastoma); NBAS-5) was 23.2, the “AB/GOMB IC90 Ratio” value (NBAS-5 (Neuroblastoma); NBAS-5) was 343 and the IC50 [4, 16] was 65.9 µM. The IC90 [4, 16] was 85.3 µM, the “AB/GOMB IC50 Ratio” value ([4]; MCF7-40F) was 12.4 and the “AB/GOMB IC90 Ratio” value ([4]; MCF7-40F) was 37.3. For the same molecule, the IC50 [5, 17] was 68.1 µM, the IC90 [5, 17] was 107 µM and the “AB/GOMB IC50 Ratio” value ([5]; LNCaP) was 11.4. For the same molecule, the “AB/GOMB IC90 Ratio” value ([5]; LNCaP) was 63, the IC50 (SK-N-MC (Neuroblastoma); [18]) was 16 µM and the IC90 (SK-N-MC (Neuroblastoma); [18]) was 35 µM. The “AB/GOMB IC50 Ratio” value (SK-N-MC (Neuroblastoma); SK-N-MC) was 13.4, the “AB/GOMB IC90 Ratio” value (SK-N-MC (Neuroblastoma); SK-N-MC) was 37.5 and the IC50 (SMS-KAN (Neuroblastoma); [19]) was 27 µM. For the same molecule, the IC90 (SMS-KAN (Neuroblastoma); [19]) was 80 µM, the “AB/GOMB IC50 Ratio” value (SMS-KAN (Neuroblastoma); SMS-KAN) was 42 and the “AB/GOMB IC90 Ratio” value (SMS-KAN (Neuroblastoma); SMS-KAN) was 26. The IC50 (K562 (Erytholeukemia); [20]) was 43.3 µM, the IC90 (K562 (Erytholeukemia); [20]) was 97 µM and the “AB/GOMB IC50 Ratio” value (K562 (Erytholeukemia); K562) was 17.8. For the same molecule, the “AB/GOMB IC90 Ratio” value (K562 (Erytholeukemia); K562) was 68.6, the IC50 (SK-N-SH (Neuroblastoma); [21]) was 28 µM and the IC90 (SK-N-SH (Neuroblastoma); [21]) was 95 µM. For the same molecule, the “AB/GOMB IC50 Ratio” value (SK-N-SH (Neuroblastoma); SK-N-SH) was 35.6, the “AB/GOMB IC90 Ratio” value (SK-N-SH (Neuroblastoma); SK-N-SH) was 37.8 and the IC50 (NBL-W-N (Neuroblastoma); [22]) was 25 µM. The IC90 (NBL-W-N (Neuroblastoma); [22]) was 70 µM, the “AB/GOMB IC50 Ratio” value (NBL-W-N (Neuroblastoma); NBL-W-N) was 19.6 and the “AB/GOMB IC90 Ratio” value (NBL-W-N (Neuroblastoma); NBL-W-N) was 44. The IC50 [6, 23] was 43.5 µM, the IC90 [6, 23] was 97 µM and the “AB/GOMB IC50 Ratio” value ([6]; MCF7-WT) was 34.5. The “AB/GOMB IC90 Ratio” value ([6]; MCF7-WT) was 97.7, the IC50 (LA1-5S (Neuroblastoma); [24]) was 39 µM and the IC90 (LA1-5S (Neuroblastoma); [24]) was 59 µM. The “AB/GOMB IC50 Ratio” value (LA1-5S (Neuroblastoma); LA1-5S) was 42, the “AB/GOMB IC90 Ratio” value (LA1-5S (Neuroblastoma); LA1-5S) was 45 and the IC50 (IMR-32 (Neuroblastoma); [25]) was 23 µM. The IC90 (IMR-32 (Neuroblastoma); [25]) was 41 µM, the “AB/GOMB IC50 Ratio” value (IMR-32 (Neuroblastoma); IMR-32) was 38 and the “AB/GOMB IC90 Ratio” value (IMR-32 (Neuroblastoma); IMR-32) was 87. For the same molecule, the IC50 (PC3 (Prostate Carcinoma); [26]) was 34.9 µM, the IC90 (PC3 (Prostate Carcinoma); [26]) was 96.1 µM and the “AB/GOMB IC50 Ratio” value (PC3 (Prostate Carcinoma); PC3) was 6.48. For the same molecule, the “AB/GOMB IC90 Ratio” value (PC3 (Prostate Carcinoma); PC3) was 46.6, the “potency relative to AB in inhibiting EBV-positive lymphoma cells” value [7] was 10 fold and the “% Cells Expressing WAF” value (MCF-7 cells (WAF); 10 μM) was 36%. For the same molecule, the “% Cells Expressing WAF” value (MCF-7 cells (WAF); 25 μM) was 34%, the “% Cells Expressing WAF” value (MCF-7 cells (WAF); 50 μM) was 79% and the “% Cells Expressing WAF” value (MCF-7 cells (WAF); 100 μM) was 81%. For the same molecule, the “increase in percentage of cells expressing WAF” value (MCF-7 cells (WAF); versus 13% in the controls) was 623%, the “concentration inducing apoptosis, lower than AB” value (MCF-7 cells (WAF); versus AB) was 10 fold and the IC50 (HT-29 cells) was 98.2 µM. For the same molecule, the IC90 (HT-29 cells) was 123 µM, the IC50 (CFPAC cells) was 32.5 µM and the IC90 (CFPAC cells) was 41 µM. The IC50 (HL-60 cells [8]) was 24.5 µM, the IC90 (HL-60 cells [8]) was 53.6 µM and the IC50 (MCF7 cells) was 109 µM. It also gave an IC90 (MCF7 cells) of 218 µM, an activation at 200 µM [9] of 49.5% and an IC50 ([10]; Homo sapiens) of 34 µM. The IC90 ([10]; Homo sapiens) was 78 µM, the “AB/GOMB IC50 Ratio” value ([10]; average) was 13.9 and the “AB/GOMB IC90 Ratio” value ([10]; average) was 27.3. The “ratio of IC50 AB:IC50 GOMB, median” value [11] was 28.5, the “ratio of IC90 AB:IC90 GOMB, median” value [11] was 53 and the “ratio of IC90 AB:IC90 GOMB, range” value [11] was 26-342 fold. For the same molecule, the “% apoptotic cells K-562” value (K-562 cells; 12.5 μM) was 9%, the “% apoptotic cells K-562” value (K-562 cells; 25.0 μM) was 18% and the “% apoptotic cells HL-60” value (HL-60 cells [12]; 5.0 μM) was 9.4%. For the same molecule, the “% apoptotic cells HL-60” value (HL-60 cells [12]; 12.5 μM) was 14.9%, the “% apoptotic cells HL-60” value (HL-60 cells [12]; 25.0 μM) was 15.8% and the “% apoptotic cells HL-60” value (HL-60 cells [12]; 37.5 μM) was 36.3%. The “activity relative to AB by IC50 and IC90 values” [13] was “at least 100 fold”, the “HbF Synthesis in K562 Cells” value (K562 cells (HbF) [14]; 0.01 mM) was 1.54 µg/mL and the “HbF Synthesis in K562 Cells” value (K562 cells (HbF) [14]; 0.05 mM) was 3.21 µg/mL. The “HbF Synthesis in K562 Cells” value (K562 cells (HbF) [14]; 0.10 mM) was 5.0 µg/mL.
